# Assay results as given in patent US11298337B2, “Parthenolide and its derivative for use in the treatment of axonal damage” (RUHR-UNIVERSITÄT BOCHUM, priority 2015, dated 2022).
# How the values were obtained:
# [1] = system: dissociated DRG neurons from adult wild type mice and GSK3α/GSK3β double knock-in mice; assay: Axon growth of DRG neurons with SB216763 or nocodazole (modulation of microtubule dynamics); conditions: 2 days in culture
# Procedure: Dorsal root ganglion (DRG) neurons were isolated from adult wild type (wt) and GSK3α/GSK3β mice as described in Gobrecht et al., Nature communications. […] DRGs (T8-L6) were harvested, incubated in 0.25% trypsin/EDTA (GE Healthcare, Chalfont St Giles, UK) and 0.3% collagenase type IA (Sigma, St. Louis, US-Mo.) in DMEM (Life Technologies, Carlsbad, US-Calif.) at 37° C. and 5% CO2 for 45 min and mechanically dissociated. Cells were resuspended in DMEM containing 10% fetal bovine serum (GE Healthcare) penicillin/streptomycin (500 U/ml; Merck Millipore, Billerica, US-MA) and 5-fluoro-2′-desoxyuridine (100 nM; Sigma). Cells were cultured on poly-D-lysine (PDL, 0.1 mg/ml, molecular weight <300,000 kDa; Sigma) and laminin (20 μg/ml; Sigma) coated 96 well plates (Nunc, Germany) at 37° C. and 5% CO2.
# [2] = system: dissociated DRG neurons from adult wild type mice; assay: Axon growth of dissociated adult DRG neurons in culture; conditions: adult wt DRG neurons, 2 days in culture
# Procedure: DRGs (T8-L6) were harvested, incubated in 0.25% trypsin/EDTA (GE Healthcare, Chalfont St Giles, UK) and 0.3% collagenase type IA (Sigma, St. Louis, US-Mo.) in DMEM (Life Technologies, Carlsbad, US-Calif.) at 37° C. and 5% CO2 for 45 min and mechanically dissociated. Cells were resuspended in DMEM containing 10% fetal bovine serum (GE Healthcare) penicillin/streptomycin (500 U/ml; Merck Millipore, Billerica, US-MA) and 5-fluoro-2′-desoxyuridine (100 nM; Sigma). Cells were cultured on poly-D-lysine (PDL, 0.1 mg/ml, molecular weight <300,000 kDa; Sigma) and laminin (20 μg/ml; Sigma) coated 96 well plates (Nunc, Germany) at 37° C. and 5% CO2.
# The effect of the tubulin carboxypeptidase (TCP) inhibitor parthenolide on axon growth of mature neurons was determined in dissociated DRG neurons from adult wild type mice as described above.
# DRGs (T8-L6) were harvested, incubated in 0.25% trypsin/EDTA (GE Healthcare, Chalfont St Giles, UK) and 0.3% collagenase type IA (Sigma, St. Louis, US-Mo.) in DMEM (Life Technologies, Carlsbad, US-Calif.) at 37° C. and 5% CO2 for 45 min and mechanically dissociated. […]
# Axonal growth was determined upon 48 h incubation by fixation in 4% PFA (Sigma) and immunocytochemical staining with antibodies against NeuN (1:2,000; Abcam, ab177487, Cambridge, UK) and βIII-tubulin (1:2,000; Covance, Princeton, US-N.J.). […]
smiles,measurement,setting,value
COC(=O)Nc1nc2ccc(C(=O)c3cccs3)cc2[nH]1 [nocodazole],"axon growth, effect on GSK3α^S/A/GSK3β^S/A and parthenolide promoted growth","[1]; 10 nM nocodazole, alone or with 1 nM parthenolide",abrogated the beneficial effects of both GSK3α^S/A/GSK3β^S/A and parthenolide to similar extent
"C=C(C(=O)O[C@H]1C/C(C)=C/CC/C(CO)=C/C2OC(=O)C(=C)[C@@H]21)C(O)CO (stereo in doubt) [cnicin, [(1R,2S,4E,8Z,10S)-8-(hydroxymethyl)-4-methyl-13-methylidene-12-oxo-11-oxabicyclo[8.3.0]trideca-4,8-dien-2-yl] (3S)-3,4-dihydroxy-2-methylidene-butanoate]",axon growth,"[2]; 0.1-100 nM, normalized to vehicle","significant, but less pronounced axon growth promotion"
same,concentration with strongest effects on axon growth,[2],0.5 nM
Cn1cc(C2=C(c3ccc(Cl)cc3Cl)C(=O)NC2=O)c2ccccc21 [SB216763],axon growth promoted by GSK3α^S/A/GSK3β^S/A,"[1]; 5 μM SB216763, double knock-in DRG neurons",efficiently blocked GSK3α^S/A/GSK3β^S/A promoted axon growth
